In paper PMC12699179, “Investigating Metal and Fluorophore Controlled Intracellular Localization in Noble Metal Thiosemicarbazone Complexes” (Chemistry (Weinheim an Der Bergstrasse, Germany), 2025):
Read-outs that look alike come from different tables or passages of the source.

How the values were obtained:
HeLa cells [1] = assay: MTT antiproliferative / cell viability assay; assay type: cell-based; details: for IC50: mean of three ± SD; for in vitro activity compared to its ligand: 72 hours
Method: We investigated the antiproliferative activities of compounds 4‒8 against HeLa cells using the standard 3‐(4,5‐dimethylthiazol‐2‐yl)‐2,5‐diphenyltetrazolium bromide (MTT) assay (Table 2). […]
8. Cell viability studies […]
media. All biological experiments were thus conducted using 5 mM stock solutions in DMSO that were diluted with culture medium to produce a final concentration of 0.5% DMSO for all experiments unless specified otherwise.
Cell viability experiments
HeLa cells were harvested, pelleted by centrifugation, and resuspended in cell culture medium. The MTT assays were carried out in 96 well plates at a starting density of 1500 cells per well in 100 µL of culture medium. The next day, a dilution series of 7 different concentrations was prepared for each evaluated compound. After 24 h of incubation, the cells were treated with 100 µL of culture medium containing the prepared conc entrations of the respective compounds to reach a final volume of 200 µL in each well. As a negative control, one series of cells was treated with the vehicle only (0.5% DMSO). […]
MTT dye (2.5 mg/mL). After a further incubation of 2 h, the medium was aspired off, and 200 µL DMSO was added to solubilize the precipitated formazan dye. The formazan absorption was measured on a BMG LABTECH CLARIOstar Plus plate reader at 550 nm, using a reference wavelength of 620 nm. Using the mean absorbance of each set of identically treated wells, a dose-response curve was produced and normalized to the wells containing untreated cells to allow for plate-to-plate comparison. The dose-response curves were then subjected to non-linear regression analysis performed in Microsoft Excel to determine IC50 values. Data is shown as the mean of three replicate experiments, and error bars represent the standard

HeLa cells [2] = test system: HeLa cells; set-up: method as in PMID 40488845; details: 24 hours incubation, highest tested concentration 15 µM; cited from earlier work
[3] = set-up: method as in PMID 40488845; details: 1H NMR, over 24 hours; cited from earlier work
[4] = Lipophilicity, n-octanol/PBS distribution (logD7.2); assay type: physicochemical; details: n-octanol/PBS distribution at pH 7.2; mean of three measurements ± SD
Source text: Having synthesized and assessed the stabilities of the complexes, we moved on to measure their lipophilicities at pH = 7.2 using the n‐octanol/PBS partition coefficient (Table 1).^[ [33], [34] ^] While the complexes were all highly lipophilic, the BODIPY‐conjugated complexes were more lipophilic than their coumarin analogs. In both sets of conjugates, the logD values followed the trend Pd(II) > Pt(II) > Au(III), with the monocationic Au(III) complexes being the least lipophilic.
7. Lipophilicity (logD7.2)
500 mL aliquots of purified octanol and PBS were thoroughly mixed in a 2 L separatory funnel and left overnight to saturate the two phases. For compound sets 5 and 7, 20 μM standard solutions were prepared in PBS-saturated octanol, respectively. 5 mL standard solutions containing the compound in question were then pipetted into 15 mL centrifuge tubes, and a 5 mL aliquot of the octanol-saturated PBS was added. The resulting samples were shaken for 10 min and allowed to rest overnight for 18 hours. The samples were then centrifuged for 30 min (3000 g, 20 °C), and aliquots of the octanol phase were analyzed via UV -Vis spectroscopy.
Experiments were conducted in triplicate. The concentrations of the compounds in the octanol phase were then quantified with respect to their λmax. […]
where A0 = absorbance of 20 μM compound in PBS-saturated octanol

HeLa cells [5] = assay: Cellular uptake assay, metal content by ICP-MS; assay type: cell-based; details: 10 µM, 24 h, whole cell accumulation by ICP-MS
Method: Subsequently, we investigated the uptake of the conjugates 5 and 7 (at 10 µM) by incubating HeLa cells with the respective compounds for 24 hours and analyzing the final metal concentration inside the cells using inductively coupled plasma mass spectrometry (ICP‐MS). […]
HeLa cells were harvested and seeded in 100 mm × 21 mm cell culture dishes at a density of 200,000 cells per dish in 10 mL of growth medium. After 96 hours of incubation, when the cells had reached 90% confluency, the growth medium was aspirated and replaced with fresh medium containing 10 μM of a compound belonging to sets 5 or 7, respectively. The cells were incubated with the compound for 24 h, after which the medium was aspirated, and the cells were washed three times with 10 mL of PBS buffer. Subsequently, the washed cells were […]
trypsinized for 3 min, and the trypsin reaction was halted by the addition of 3 mL growth media.
Cells were suspended in the mixture, and the total cell count was determined using a Bio -Rad TC20 cell counter. The cell suspension was centrifuged at 5000 rpm for 5 minutes, and the supernatant was removed. The cells were then digested using 2 mL of aqua regia (3:1 v/v, 37% HCl and 70% HNO3, trace metal basis quality (Aldrich, purity ≥99.999%)) and sonicated at 60 °C for 16 h. The dissolved samples were then diluted with 13 mL of HPLC-grade water to reach a final volume of 15 mL. The total metal content of the samples was then determined via ICP-MS analysis (Thermo Scientific iCAP RQ, ASX-560) in Ar plasma in KED mode with He as collision gas. Reference to standards was made, and calibration curves were developed using commercial calibration standards (TraceCert®, Merck).
Fluorophore Compound Metal content
Table S3: Whole cell accumulation of compound sets 5 and 7 analyzed using ICP-MS and expressed in terms of total metal content. […]

[6] = Stability in cell culture medium by UV/Vis spectroscopy; assay type: physicochemical; details: 50 µM, DMEM with 10% fetal bovine serum, over 72 hours
Method: Likewise, the stability of these complexes was shown via UV/Vis spectrophotometry in cell culture medium over 72 hours.^[ [22] ^] The stability of the newly synthesized compounds was investigated similarly. […] However, the absorption profiles remained distinctly different from those of the corresponding free ligands, which was taken as evidence that the Pd(II) metal center remained chelated by the ligand.
(§1) Stability in Cell Culture Medium and Water
(§2) 5 mM stocks of the respective compounds in DMSO were diluted to produce a final concentration of 50 µM in water or Dulbecco's Modified Eagle's Medium (DMEM) containing 10% fetal bovine serum and 1% penicillin + streptomycin , respectively. The stability of the compounds was monitored via UV/Vis spectroscopy by recording the corresponding absorption profiles of the 50 µM solutions and comparing any changes to the profiles over […]

[7] = set-up: method as in PMID 40488845; details: UV/Vis, over 72 hours; cited from earlier work
[8] = Stability in water by UV/Vis spectroscopy; assay type: physicochemical; details: 50 µM, after 72 hours
Method: In the case of the Au(III) complexes, both the BODIPY conjugated complex 7a and the parent Dp44mT complex 8a ostensibly decomposed in cell culture medium, as their absorption profiles in media lacked the characteristic charge transfer band at λmax ∼440 nm observed in water. […] However, a slight shift in the λmax coupled with a decrease in absorbance was observed (Figure 4D).
as §1, §2

HeLa cells [9] = assay: Live-cell confocal microscopy, colocalization with organelle trackers; assay type: cell-based; details: 10 µM, 24 hours, ± standard deviation
Method: The subcellular behavior of the compounds was then assessed using a confocal microscope following incubation with HeLa cells (10 µM) for 6 hours and 24 hours, respectively (Figures S56, S57, and 5, 6). Moreover, we performed colocalization experiments with appropriate commercial organelle tracking dyes. As controls, we used the methyl and ethyl esters of 1 and 2, 1‐OMe and 2‐OEt, respectively. […] Moreover, the Pearson Correlation Coefficients (PCC) between 6 and the commercial lysosome tracker (LysoTracker deep red) channel improved over time from 0.63 to 0.81. Additionally, the distribution was distinct from 2‐OEt, corroborating that the Dp44mT scaffold directed the localization of the conjugates. Therefore, attaching BODIPY had no discernible effect on the lysosomal accumulation of Dp44mT.
Figure S55: Excitation (Exc) and emission (Em) spectra of BODIPY conjugates 6 and 7 at 10 µM in water. For (A) 6 and (B) 7a compounds, λex = 502 nm and λem = 519 nm; Slitwidth: […]; Sensitivity: low and medium, respectively. For (C) 7b and (D) 7c, λex = 519 nm and λem = 519 nm; Slitwidth: […]; Sensitivity: medium […]
collected at the appropriate emission wavelengths. […] The corresponding Pearson's Correlation Coefficients (PCCs) were calculated using Fiji (version 1.54f).[7] […]

[10] = Homo sapiens, 24 hours incubation, read-out: IC50 24 hours
[11] = Homo sapiens, 72 hours incubation, read-out: IC50 72 hours
[12] = 24 hours incubation, read-out: IC50 24 hours
[13] = 72 hours incubation, read-out: IC50 72 hours

SMILES	IC50 (HeLa cells [1]; [10])	IC50 (HeLa cells [1]; [11])	logD 7.2 [4]	IC50 (HeLa cells [1]; [12])	IC50 (HeLa cells [1]; [13])	Metal content (HeLa cells [5])	stability in cell culture medium [6]	stability in water [8]	Pearson Correlation Coefficient (PCC) with ER Tracker (HeLa cells [9])	effect on cell viability after 24 hours (HeLa cells [2])	stability in DMSO-d6 [3]	in vitro activity compared to its ligand (HeLa cells [1])	stability in cell culture medium [7]
CN(C)C(=S)NN=C(c1ccccn1)c1cccc(CCNC(=O)CCCNC(=O)c2cc3cc4c5c(c3oc2=O)CCCN5CCC4)n1 [Compound 4]	> 15 µM	0.8 ± 0.1 µM	–	–	–	–	–	–	–	did not affect cell viability	stable	–	–
CN(C)C1=N[N+]2=C(c3cccc(CCNC(=O)CCCNC(=O)c4cc5cc6c7c(c5oc4=O)CCCN7CCC6)n3)c3cccc[n+]3[Au-]2([Cl])[S]1.F[P-](F)(F)(F)(F)F (stereo not shown) [Compound 5a]	–	–	0.99 ± 0.02	> 15 µM	3.1 ± 0.3 µM	0.032 ± 0.016 pg/cell	similarly decomposed	–	–	–	–	fourfold lower activity	–
CN(C)C1=N[N+]2=C(c3cccc(CCNC(=O)CCCNC(=O)c4cc5cc6c7c(c5oc4=O)CCCN7CCC6)n3)c3cccc[n+]3[Pt-2]2([Cl])[S]1 (stereo not shown) [Compound 5b]	–	–	1.47 ± 0.03	> 15 µM	58.2 ± 4.3 µM	0.016 ± 0.005 pg/cell	–	–	–	did not affect cell viability	stable	–	stable
CC1=CC(C)=[N+]2C1=Cc1ccc(CCC(=O)NCCc3cccc(C(=NNC(=S)N(C)C)c4ccccn4)n3)n1[B-]2(F)F [Compound 6]	> 15 µM	0.8 ± 0.1 µM	–	–	–	–	–	–	–	–	–	–	–
CN(C)C(=S)NN=C(c1ccccn1)c1ccccn1 [Dp44mT, di‐2‐pyridylketone‐4,4‐dimethyl‐3‐thiosemicarbazone, reference compound]	> 15 µM	0.009 ± 0.0003 µM	–	–	–	–	–	–	–	did not affect cell viability	–	–	–

More lines, main results first:

IC50 (HeLa cells [1]; [10])	IC50 (HeLa cells [1]; [11])	logD 7.2 [4]	IC50 (HeLa cells [1]; [12])	IC50 (HeLa cells [1]; [13])	Metal content (HeLa cells [5])	stability in cell culture medium [6]	stability in water [8]	Pearson Correlation Coefficient (PCC) with ER Tracker (HeLa cells [9])	SMILES	effect on cell viability after 24 hours (HeLa cells [2])	stability in DMSO-d6 [3]	in vitro activity compared to its ligand (HeLa cells [1])	stability in cell culture medium [7]
–	–	1.53 ± 0.07	> 15 µM	0.6 ± 0.1 µM	0.035 ± 0.007 pg/cell	decomposed	only mild degradation	–	CC1=CC(C)=[N+]2C1=Cc1ccc(CCC(=O)NCCc3cccc(C4=[N+]5N=C(N(C)C)[S][Au-]5([Cl])[n+]5ccccc54)n3)n1[B-]2(F)F.F[P-](F)(F)(F)(F)F (stereo not shown) [Compound 7a]	–	–	comparable to their respective ligands	–
–	–	1.80 ± 0.04	> 15 µM	4.3 ± 0.3 µM	0.013 ± 0.002 pg/cell	remained stable	–	0.51 ± 0.01	CC1=CC(C)=[N+]2C1=Cc1ccc(CCC(=O)NCCc3cccc(C4=[N+]5N=C(N(C)C)[S][Pt-2]5([Cl])[n+]5ccccc54)n3)n1[B-]2(F)F (stereo not shown) [Compound 7b]	–	–	–	–
–	–	–	> 15 µM	0.009 ± 0.0005 µM	–	decomposed	only mild degradation	–	CN(C)C1=N[N+]2=C(c3ccccn3)c3cccc[n+]3[Au-]2([Cl])[S]1.[Cl][Au-][Cl] (stereo not shown) [Compound 8a]	–	–	comparable to their respective ligands	–
